Laboratory results as given in publication PMC6581923 (Journal of Molecular Neuroscience, 2018).
“Also recorded” adds a separate entry of the source.

How the values were obtained:
[1] = Efficiency of Traversing Eye to Retina (EtE) of FITC labeled peptides given in eye drops; assay type: in vivo, rat (male)
Experimental: In order to trace the drugs, peptides were labeled with fluorescein isothiocyanate (FITC) using a FITC Protein Labeling Kit from ChangRu Biotech Ltd. (Guangzhou, China) according to the manufacturer’s protocol. After the labeling reaction, gel filtration was used to remove the free FITC. In order to determine the amount of the residual free FITC, the peptides were submitted to ultrafiltration using Amicon Ultra – 0.5 mL (Millipore, USA) with a molecular sieve of 2000 Da. After centrifugation (1000×g, 10 min) the peptide was subjected to fluorescence measurements performed with the multi-wavelength scanner Victor 3 (GE, USA) at the excitation of 495 nm and the emission of 520 nm. Protein concentrations were determined using the K4000 Bradford Protein Quantification Kit (Innovative, Guangzhou, China). The labeling efficiency was calculated using the following formula: label efficiency (LE) = fluorescence value (FV)/peptide mass (mol) (PM), representing the fluorescence intensity (AU) per mol of peptide (mol).
Male rats with body weight from 160 to 180 g were purchased from the Medical and Experimental Animal Center (Guangdong, China). Rats were randomly assigned to one of the experimental groups (7 rats per group) and subjected to eye drops with FITC labeled peptides (100 nmol/kg) and PBS as control. Rats were sacrificed by anesthesia 2 h after the eye drop administration and the retina was separated, weighed, washed three times with PBS and divided into two parts. One part was prepared on the glass slide with glycerin and subjected to fluorescence microscopic observation of FITC with 495 nm excitation/520 nm emission. All images, focused on the left upper regions of the retina, were taken with 500 ms exposure time. The other part of the retina was subjected to grinding and ultrasonication in PBS at a concentration of 100 mg weight tissue per milliliter of PBS. The supernatant was collected by centrifugation and the fluorescence intensity in the supernatant (100 uL) was determined. The valid fluorescence intensity (FI) for each sample treated with FITC labeled peptide was corrected by subtracting the fluorescence value of the sample treated with PBS, which was used as a blank background. The Efficiency of Traversing Eye to Retina (EtE) was expressed as the percentages of the FITC labeled peptide mass in the retina to the total FITC labeled peptide mass. The EtE was calculated using the following formula: EtE = tFI/LE/PW × 100% (tFI presents the fluorescence intensity of retina (arbitration unit, AU); LE presents the label efficiency of each peptide which has been determined above; PW presents the peptide mass (mole)).
Fig. 1 The efficiency of FITC labeled PACAP/PACAP-TAT (a, b) and VIP/VIP-TAT (c, d) traversing to retina given in eye drops. The retina was separated 2 h after the eye drops and submitted to the fluorescence microscopic observation of FITC fluorescence signal (A, C) and the calculation of Efficiency of Traversing Eye to Retina (EtE) (b, d). The data are means ± SEM of four experiments

[2] = test system: retina (BCCAO-induced retinopathy); test: Retinal layer thickness / morphology after bilateral carotid artery occlusion (BCCAO), eye drops; assay type: in vivo, rat (male); settings: for Retinoprotective efficacy of eye drops, overall / compared with untagged peptide: topical eye drops in SOCB
Experimental: Adult male rat litters were housed in the animal facility in individual cages in a 12 h light-dark cycle with food and water ad libitum. Animal housing, care and application of experimental procedures were in accordance with institutional guidelines under approved protocols (No: BA02/2000–26/2017, University of Pecs). Under isoflurane anesthesia, common carotid arteries were exposed on both sides through a midline incision and then ligated with a 3–0 filament. A group of animals (sham group) underwent all steps of the operating procedure except ligation of the carotid arteries. Immediately following the operation, the right eye of the animals was treated with derivatives of PACAP (PACAP-TAT /n = 17/ or VIP-TAT /n = 17/) eye drops (1 μg/drop). Dose and schedule of the eye drop treatments were based on our previous experiments (Werling et al. [2016]). In the experiment for histological analysis, the different derivatives were dissolved in benzalkonium solution for ophthalmic use (solutio ophthalmica cum benzalkonio (SOCB)). The left eye, serving as a control, was treated with vehicle containing neither PACAP-TAT nor VIP-TAT. Animals were treated for five consecutive days, twice a day with one drop of drug, under brief isoflurane anesthesia (max. 5 min).
Fourteen days after the operation, rats (n = 10 SHAM and n = 24 BCCAO) were killed with anesthetic and the eyes were processed for histology. The eyes were removed and the retinas were solved in phosphate buffered saline (PBS), fixed in 4% paraformaldehyde dissolved in 0.1 M phosphate buffer (PB) (Sigma, Budapest, Hungary) and embedded in Durcupan ACM resin (Sigma, Budapest, Hungary). Retinas were cut at 2 μm and stained with toluidine blue dye (Sigma, Hungary). Sections were mounted in DPX medium (Sigma, Hungary) and photographs were taken with a digital CCD camera using the Spot program. Central retinal areas within 1 mm from the optic nerve were used (n = 5 measurements from one tissue block). The following parameters were measured: (i) cross-section of the retina from the outer limiting membrane (OLM) to the inner limiting membrane (ILM), (ii) the width of individual retinal layers (outer nuclear layer [ONL], outer plexiform layer [OPL], inner nuclear layer [INL], inner plexiform layer [IPL]), (iii) the number of cells/100 μm section length in the GCL, and the (iv) number of cells/[…]. Results are presented as mean ± SEM. Statistical comparisons were made using the two-way ANOVA test followed by Tukey’s post hoc analysis.
(§1) Fig. 4 Quantification of retinal layers in SHAM+SOCB, in SHAM+PACAP-TAT, in BCCAO+SOCB, and in BCCAO+PACAP-TAT animals; the right eye was treated with PACAP-TAT eye drops, the left eye served as controls receiving only SOCB. Comparison of all retinal layers (a–e). […] Statistical significance (*p < 0.05 vs. SHAM+SOCB retinas, #p < 0.05 vs. BCCAO+SOCB retinas) was calculated by two-way ANOVA followed by Fischer’s post hoc test
as §1, with “6” for “4”, “SHAM+VIP-TAT,” for “SHAM+PACAP-TAT,”, “BCCAO+VIP-TAT” for “BCCAO+PACAP-TAT”, “VIP-TAT” for “PACAP-TAT”, “control” for “controls”

CC[C@H](C)[C@H](NC(=O)[C@H](CO)NC(=O)[C@H](CC(N)=O)NC(=O)[C@H](CC(C)C)NC(=O)[C@H](Cc1ccc(O)cc1)NC(=O)[C@H](CCCCN)NC(=O)[C@H](CCCCN)NC(=O)[C@@H](NC(=O)[C@H](C)NC(=O)[C@H](CCSC)NC(=O)[C@H](CCC(N)=O)NC(=O)[C@H](CCCCN)NC(=O)[C@H](CCCNC(=N)N)NC(=O)[C@H](CC(C)C)NC(=O)[C@H](CCCNC(=N)N)NC(=O)[C@@H](NC(=O)[C@H](Cc1ccc(O)cc1)NC(=O)[C@H](CC(N)=O)NC(=O)[C@H](CC(=O)O)NC(=O)[C@@H](NC(=O)[C@H](Cc1ccccc1)NC(=O)[C@@H](NC(=O)[C@H](C)NC(=O)[C@H](CC(=O)O)NC(=O)[C@H](CO)NC(=O)[C@@H](N)Cc1c[nH]cn1)C(C)C)[C@@H](C)O)[C@@H](C)O)C(C)C)C(=O)N[C@@H](CC(C)C)C(=O)N[C@@H](CC(N)=O)C(=O)NCC(=O)N[C@@H](CCCNC(=N)N)C(=O)N[C@@H](CCCCN)C(=O)N[C@@H](CCCCN)C(=O)N[C@@H](CCCNC(=N)N)C(=O)N[C@@H](CCCNC(=N)N)C(=O)N[C@@H](CCC(N)=O)C(=O)N[C@@H](CCCNC(=N)N)C(=O)N[C@@H](CCCNC(=N)N)C(=O)N[C@@H](CCCNC(=N)N)C(=O)N1CCC[C@H]1C(=O)N[C@@H](CCC(N)=O)C(=O)O [VIP-TAT]
Efficiency of Traversing Eye to Retina (EtE) ([1]; FITC labeled peptides, eye drops 100 nmol/kg, retina separated 2 h after, fluorescence 495 nm excitation/520 nm emission, % of FITC labeled peptide mass in retina to total, means ± SEM of four experiments (7 rats per group)): 3.05 ± 0.58% | EtE relative to the untagged peptide ([1]; PACAP-TAT/VIP-TAT vs PACAP/VIP, respectively, eye drops 100 nmol/kg, 2 h): about three-fold that of PACAP/VIP | FITC fluorescence density per area unit in the retina ([1]; fluorescence microscopy of retina 2 h after eye drops of FITC labeled peptides (100 nmol/kg), vs PACAP/VIP): much higher than in retinas treated with eye drops of PACAP/VIP | OPL preservation after BCCAO ([2]; BCCAO + eye drops, OPL almost disappeared in several BCCAO-induced degenerated retinas): preserved | Retinal degeneration in light microphotographs after BCCAO ([2]; BCCAO + eye drops, toluidine blue sections, 14 days, severe degeneration in BCCAO+SOCB): only mild degeneration | Retinoprotective efficacy of eye drops, overall / compared with untagged peptide ([2]; BCCAO): attenuate ischemic retinal degeneration via the PAC1 receptor | Retinoprotective efficacy of eye drops, overall / compared with untagged peptide ([2]; BCCAO, listed as TAT-bound VIP): a similar degree of protection | Retinoprotective efficacy of eye drops, overall / compared with untagged peptide ([2]; BCCAO, listed as VIP bound to TAT peptide): could effectively traverse the ocular barriers and exert a neuroprotective effect in the retina; also recorded: much stronger retinoprotective effects when bound to TAT | Retinal layer thickness (OLM-ILM, ONL, OPL, INL, IPL) after BCCAO ([2]; BCCAO, eye drops 1 μg/drop, twice a day, five consecutive days, in SOCB, right eye, left eye SOCB control, 14 days, p < 0.05 vs. BCCAO+SOCB): significant amelioration in all retinal layers; also recorded: improved the structure of all the retinal layers | Change of retinal thickness in sham animals ([2]; eye drops alone in sham animals, 1 μg/drop, twice a day, five consecutive days, in SOCB, histology 14 days after operation): did not cause any changes in the retinal thickness
